Laboratory results published in ChEMBL document CHEMBL4834421, “Deconstructing Noncovalent Kelch-like ECH-Associated Protein 1 (Keap1) Inhibitors into Fragments to Reconstruct New Potent Compounds” (J Med Chem, 2021).

Experiments:
[1] = human, plasma, 3 h, 20 µM
[2] = pampa, 5 h
in vitro = conditions: CD1, mouse
[3] = Stability of compound in human plasma assessed as half life at 20 uM incubated for 3 hrs by LC-MS (SIM) assay; format: ADME, cell-free

| Compound | Stabilty [1] | permeability [2] | half-life at 4 h, 10 µM (in vitro; liver microsomes) | further results |
| --- | --- | --- | --- | --- |
| O=C(O)c1cnn(-c2cccc(NS(=O)(=O)c3ccccc3)c2)c1C1CC1 | Stable | < 2% | 4 h |  |
| CC(C)NCC(O)COc1cccc2ccccc12 (configuration not stated) [PROPRANOLOL] |  |  |  | half-life at 4 h, 10 µM (in vitro; microsomes): 0.617 h |
| CCN(CC)CCOC(=O)c1ccc(N)cc1 [PROCAINE] |  |  |  | half-life at 20 µM [3]: 2 min |
| O=C(O)CN(c1cccc(-n2ncc(C(=O)O)c2C2CC2)c1)S(=O)(=O)c1ccccc1 |  | < 2% | 4 h |  |
| COc1cccc(S(=O)(=O)N(CC(=O)O)c2cccc(-n3ncc(C(=O)O)c3[C@H]3C[C@@H]3c3ccccc3)c2)c1 (relative stereo) | Stable | < 2% | 4 h |  |
| CCCCC1CCCN1C(=O)[C@@H]1CCC[C@H](c2cccc(-n3ncc(C(=O)O)c3C3CC3)c2)C1 (some centres not stated) | Stable |  |  |  |
| CNC(=O)c1cnn(-c2cccc(NS(=O)(=O)c3ccccc3)c2)c1C1CC1 |  | < 2% |  |  |
